Data reported in patent US20240024509A1, “COMPOSITIONS AND METHODS FOR TREATING CEREBROSPINAL FLUID DISORDERS” (The Children's Medical Center Corporation, priority 2021, published 2024).
Blank lines part the entries; values can stand above or below the compound they belong to.

Experiments:
[1] = tested on: choroid plexus (ChP) epithelial cells; assay: Calcium imaging of LV ChP explants exposed to plasma; assay type: cell-based, mouse; settings: LV ChP explant, FoxJ1-Cre::GCaMP6f mice
Description: […] Imaging and analyses were performed as described (12). Plasma (using citrate as anti-coagulant instead of EDTA, same protocol as described above) was delivered to explants by topical application from a glass capillary needle and serum was delivered to the lateral ventricle of live mice during imaging through the injection cannula. Serum was prepared by collecting blood using the same approach as described above, incubating on ice for 30 min. and then centrifuging for 10 min. at 5,000 g twice to separate the supernatant.

[2] = tested on: intraventricular hemorrhage (IVH) model; assay: E14.5 IVH model with calcium signaling disruption (LiCl pretreatment or EDTA), MRI and infusion test; assay type: in vivo, mouse
Source text: Timed pregnant mice (E14.5) were anesthetized with isoflurane and kept warm. Following laparotomy, AAV solution or age-matched whole blood was delivered into the lateral ventricle of each embryo (located visually) using glass capillary pipettes. The uterine horns were returned to the abdomen and the incisions sutured. When age-matched whole blood was used, the donor mouse was anesthetized with ketamine/xylazine and warmed. Fresh blood was obtained from the jugular veins with a glass capillary pipette and immediately delivered to the recipient.
Mice were imaged using Bruker BioSpec small animal MRI (7T) at P14 or P25 while under anesthesia by isoflurane. A warm pad was used to maintain body temperature. Breathing rate and heart rate were monitored to reflect the depth of anesthesia. All T2 images were acquired using the following criteria: TE/TR=60/4000; Ave=4; RARE=4; slice thickness=0.6 mm.
Constant aCSF infusion testing was performed as previously described (23). In summary, a single catheter was implanted into the lateral ventricle of a mouse under anesthesia. The catheter infused aCSF at a constant rate and monitored intracranial pressure (ICP). The Marmarou model of cerebrospinal fluid (CSF) dynamics for constant rate infusions were used to calculate parameters describing cerebrospinal fluid (CSF) dynamics by a non-linear least squares fit of the model to the intracranial pressure (ICP) data (62).

NKCC1 = assay: LiCl ICV pretreatment in adult IVH model, ChP pNKCC1 immunoblot; assay type: in vivo, mouse; settings: adult mice; ICV LiCl 50 mM, 5 μL, 30 min. prior to blood; after 48 hrs
Source text: P4: pups were anesthetized by hypothermia. An incision was made along the midline of the scalp to expose the skull. A 26 G needle was used to pierce the skull directly above the lateral ventricle. AAV solution or age-matched whole blood was delivered into the lateral ventricle through the piercing using glass capillary pipettes. The skin incision was closed with suture and Vetbond (3M, Minnesota). The pup was warmed and returned to cage after recovery. Whole blood was collected transcardially from littermates anesthetized by hypothermia. Adult: adult intracerebroventricular (ICV) injection followed similar procedures as P4 with the following exceptions: (1) adult mice were anesthetized using isoflurane; (2) a hand drill was used directly above the lateral ventricle; (3) blood donor was anesthetized using ketamine/xylazine.
Tissues were quickly dissected in cold HBSS and homogenized in RIPA buffer supplemented with protease and phosphatase inhibitors. The homogenate was centrifuged at maximum speed for 10 min. to remove cellular debris. Protein concentration was determined by BCA assay (Thermo Scientific 23227). Samples were denatured in 2% SDS supplemented with 2-Mercaptoethanol by heating at 37° C. for 5 min. […] Band intensity was quantified by FIJI.

Compound: NCCOB(c1ccccc1)c1ccccc1 [2-APB, 2-aminoethoxydiphenyl borate]
epifluorescence calcium responses to plasma [1]: disrupted

Compound: O=C(O)CN(CC(=O)O)c1ccccc1OCCOc1ccccc1N(CC(=O)O)CC(=O)O [BAPTA]
epifluorescence calcium responses to plasma [1]: disrupted

ventriculomegaly ([2]; E14.5, ICV injection of blood containing EDTA, 3 weeks after the injection): severe ventriculomegaly
Compound: O=C(O)CN(CCN(CC(=O)O)CC(=O)O)CC(=O)O [EDTA, ethylenediaminetetraacetic acid]
epifluorescence calcium responses to plasma [1]: disrupted

Compound: O=C(O)CN(CCOCCOCCN(CC(=O)O)CC(=O)O)CC(=O)O [EGTA, ethylene glycol-bis(β-aminoethyl ether)-N,N,N′,N′-tetraacetic acid]
epifluorescence calcium responses to plasma [1]: disrupted

Compound: [Cl-].[Li+] [LiCl, lithium chloride]
epifluorescence calcium responses to plasma [1]: disrupted
NKCC1 phosphorylation rate (pNKCC1) (NKCC1): decreased NKCC1 phosphorylation rate
ventriculomegaly ([2]; E14.5, ICV LiCl 30 min. prior to blood, vs controls, MRI): more pronounced ventriculomegaly
ventricular enlargement in two extreme cases ([2]; E14.5, LiCl pretreatment plus blood): over 200 fold
baseline intracranial pressure (ICP) ([2]; LiCl pretreatment alone): does not change
compliance ([2]; LiCl pretreatment alone): does not change
ventricle size ([2]; LiCl treatment alone): did not affect ventricle size
intracranial pressure (ICP) ([2]; LiCl-Blood mice compared to LiCl-PBS mice): unaltered
